# Measurements published in patent US8518956B2, “1-(1-(2-ethoxyethyl)-3-ethyl-7-(4-methylpyridin-2-ylamino)-1H-pyrazolo[4,3-d]pyrimidin-5-yl) piperidine-4-carboxylic acid and salts thereof” (priority 2005, dated 2013).
# Target: T1, PDE5 enzyme (Homo sapiens, UniProt O76074)
# T1 construct: The PDE5 enzyme isolated from human platelets; from tissue; host or cells: human platelets
# Assay: Method 1: Human Platelet PDE5 Enzyme Inhibition Scintillation Proximity Assay
# Type: biochemical
# Conditions: METHOD 1: PDE5 IC50, Table B, WO2004096810 examples
# Source text: Method 1: Human Platelet PDE5 Enzyme Inhibition Scintillation Proximity Assay
# An in vitro assay can be used to evaluate the inhibition of PDE5 enzyme activity by a test compound.
# The PDE5 enzyme for use in the assay can be obtained from human platelets by appropriate modification of the method of Thompson, W J et al.; Biochemistry 18(23), 5228-5237, 1979, as described by Ballard S A et al.; J. Urology 159(6), 2164-2171, 1998. The PDE5 enzyme isolated from human platelets can be used to catalyze the hydrolysis of [^3H]cGMP (Amersham Biosciences) to 5′ nucleotide [^3H]GMP. The [^3H]GMP binds to yttrium silicate SPA beads (Amersham Biosciences) and is detected by scintillation counting. More specifically, the effect of the test compound at different concentrations can be evaluated in the assay by contacting the compound with a fixed amount of PDE5 enzyme in the presence of substrate (cGMP or cAMP in a 3:1 ratio unlabelled to [^3H]-labeled). Scintillation counting can be used as described above to determine relative PDE5 enzyme activity. The inhibition of PDE5 enzyme activity is then calculated relative to total PDE5 enzyme activity of uninhibited controls.
# PDE5 IC50 Assay: 96-well microtiter plate format
# • Buffer A: 20 mM Tris-HCl, 5 mM MgCl2, pH 7.4 • Buffer B: 2 mg/ml BSA in Buffer A (enzyme buffer) • cGMP substrate: Final concentration of 500 nM in assay The amount of ^3H-labeled substrate added depends upon the specific activity of [^3H]cGMP, and the cGMP substrate is diluted with a 10 mM stock of cold cGMP in Buffer A for a final substrate concentration of 500 nM in the assay. • PDE enzyme: Prepared in Buffer B. The dilution factor is determined by enzyme activity. • SPA beads: 20 mg/ml suspension prepared in dH2O.
# Stocks of standard and test compounds are prepared at 5 mM in 100% DMSO. The compound is serially diluted in a dilution plate using a 10-point ½ log dilution format. 2 μl of the compound dilution is added in duplicate to the wells of the assay plate. 2 μl of 100% DMSO are added to designated control wells. 25 μl of Buffer A are added to all wells. 25 μl of Buffer B are added to the negative control wells. 25 μl of enzyme are added to the remaining wells. 50 μl of substrate are added to each well. Plates are sealed and incubated for 60 minutes on a plate shaker at 30 C. 50 plof SPA beads are added to stop the reaction. The plates are again sealed and shaken for 15 minutes to allow the beads to bind the GMP product. The beads are allowed to settle for 30 minutes and then read on a NXT TopCount scintillation counter. Data are analyzed with a curve fitting application for plate-based screening. Percent inhibition in this assay is calculated as follows: Inhibition (%)=[(mean maximum−compound value/(mean maximum−mean minimum)]×100.
# The IC50 value is determined from sigmoid dose-response curves of enzyme activity versus compound concentration.
row,IC50,Compound
1,0.39 nM,CCCOCCn1nc(C)c2nc(N3CCN[C@H](C)C3)nc(Nc3ccncn3)c21 [WO2004096810 Example 23]
2,1.3 nM,CCOCCn1nc(COC)c2nc(N(C)C)nc(Nc3cc(C)ccn3)c21 [WO2004096810 Example 185]
3,19.1 nM,CCOCCn1nc(C)c2nc(N3CCN[C@H](C(C)C)C3)nc(Nc3ccncn3)c21 [WO2004096810 Example 13]
4,> 100 nM,CCOCCn1nc(C)c2nc(N3C[C@@H]4C[C@H]3CN4)nc(Nc3ccc(C)cn3)c21 [WO2004096810 Example 240]
5,37.7 nM,Cc1nn(C(C)C)c2c(Nc3ccncn3)nc(N3CCN[C@H](C)C3)nc12 [WO2004096810 Example 24]
6,1.09 nM,CCOCCn1nc(C)c2nc(N3C[C@H](C)NC[C@H]3C)nc(Nc3cc(C)ccn3)c21 [WO2004096810 Example 136]
7,1.43 nM,CCOCCn1nc(C)c2nc(N3C[C@H](C)NC[C@H]3C)nc(Nc3ccc(C)cn3)c21 [WO2004096810 Example 137]
8,0.42 nM,CCOCCn1nc(COC)c2nc(N3CCC[C@H]3CO)nc(Nc3cc(C)ccn3)c21 [WO2004096810 Example 213]
9,231 nM,CCc1nn(CCOC)c2c(Nc3cc(C)ccn3)nc(NC[C@@H]3CCCN3)nc12 [WO2004096810 Example 98]
10,0.09 nM,CCOCCn1nc(CC)c2nc(N3CCN[C@H](C)C3)nc(Nc3ccncn3)c21 [WO2004096810 Example 15]
11,0.35 nM,CCOCCn1nc(COC)c2nc(N(C)CCO)nc(Nc3cc(C)ccn3)c21 [WO2004096810 Example 227]
12,1760 nM,COCCCn1nc(C)c2nc(N3CCNCC3)nc(Nc3cc(C)n[nH]3)c21 [WO2004096810 Example 116]
13,25.9 nM,CCOCCn1nc(C)c2nc(N3CCN[C@H](C)C3)nc(Nc3ccc(=O)n(C)c3)c21 [WO2004096810 Example 201]
14,12.6 nM,CCc1nn(CCOC)c2c(Nc3cc(C)ccn3)nc(N[C@H](C)CO)nc12 [WO2004096810 Example 154]
15,81.2 nM,COCCn1nc(C)c2nc(N3C[C@@H](C)NC[C@@H]3C)nc(Nc3ccc(C)cn3)c21 [WO2004096810 Example 143]
16,1.01 nM,CCOCCn1nc(CC)c2nc(N(C)[C@H]3CCN(C)C3)nc(Nc3ccncn3)c21 [WO2004096810 Example 193]
17,60.6 nM,COCCCn1nc(C)c2nc(N[C@@H](C)CO)nc(Nc3cc(C)cc(C)n3)c21 [WO2004096810 Example 114]
18,2100 nM,Cc1ccnc(Nc2nc(N3CCNCC3)nc3c(C)nn(CC(F)(F)F)c23)c1 [WO2004096810 Example 170]
19,7580 nM,CCCc1nn(C)c2c(NC3CCC(OC)CC3)nc(N3CCNCC3)nc12 (centres unmarked) [WO2004096810 Example 127]
20,6.03 nM,CCCOCCn1nc(C)c2nc(N3CCN[C@H](C)C3)nc(Nc3ccc(C)cn3)c21 [WO2004096810 Example 7]
21,1450 nM,CCCc1nn(C)c2c(Nc3ccc(C)cn3)nc(N3CCCCC3)nc12 [WO2004096810 Example 36]
22,182 nM,CCCc1nn(C)c2c(Nc3cc(C)cc(C)n3)nc(N3CCNCC3)nc12 [WO2004096810 Example 125]
23,18.3 nM,COCCn1nc(C(C)C)c2nc(N3CCNCC3)nc(Nc3ccc(C)cn3)c21 [WO2004096810 Example 179]
24,47.9 nM,CCOCCn1nc(CC)c2nc(N3CCN[C@H](C)C3)nc(N(C)c3ccncn3)c21 [WO2004096810 Example 28]
25,24.1 nM,CCOCCn1nc(C)c2nc(N3CC(NC)C3)nc(Nc3cc(C)ccn3)c21 [WO2004096810 Example 204]
26,3.13 nM,CCOCCn1nc(C)c2nc(N3CCN[C@H](C)C3)nc(Nc3cnc(C)c(C)c3)c21 [WO2004096810 Example 199]
27,> 10000 nM,CCCc1nn(C)c2c(Nc3cc(C)ccn3)nc(N)nc12 [WO2004096810 Example 77]
28,0.63 nM,CCOCCn1nc(C)c2nc(N(C)CC)nc(Nc3ccc(=O)n(C)c3)c21 [WO2004096810 Example 203]

row,Compound,IC50
1,CCOCCn1nc(COC)c2nc(N(C)C3CCN(C)CC3)nc(Nc3cc(C)ccn3)c21 [WO2004096810 Example 214],0.37 nM
